Measured values taken from patent US20230263822A1, “MODULATION OF FACTOR 11 EXPRESSION” (Ionis Pharmaceuticals, Inc., priority 2008, published 2023).

How the values were obtained:
Factor 11 activity = experiment: Factor 11 protein activity, F11 assay based on clotting time (Example 45); format: in vivo, cynomolgus monkeys; settings: escalating dose regimen
Protocol: (§1) Groups, each consisting of two male and three female monkeys, were injected subcutaneously with ISIS 416838, ISIS 416850, ISIS 416858, ISIS 416864, or ISIS 417002 in escalating doses. Antisense oligonucleotide was administered to the monkeys at 5 mg/kg three times per a week for week 1; 5 mg/kg twice per week for weeks 2 and 3; 10 mg/kg three times per week for week 4; 10 mg/kg twice per week for weeks 5 and 6; 25 mg/kg three times per week for week 7; and 25 mg/kg twice per week for weeks 8, 9, 10, 11, and 12. One control group, consisting of two male and three female monkeys, was injected subcutaneously with PBS according to the same dosing regimen. An additional experimental group, consisting of two male and three female monkeys, was injected subcutaneously with ISIS 416850 in a chronic, lower dose regimen. Antisense oligonucleotide was administered to the monkeys at 5 mg/kg three times per week for week 1; 5 mg/kg twice per week for week 2 and 3; 10 mg/kg three times per week for week 4; and 10 mg/kg twice per week for weeks 5 to 12. Body weights were measured weekly. Blood samples were collected 14 days and 5 days before the start of treatment and subsequently once per week for Factor 11 protein activity analysis in plasma, fibrinogen measurement, PT and aPTT measurements, bleeding times, and measurement of various hematologic factors. On day 85, the monkeys were euthanized by exsanguination while under deep anesthesia, and organs harvested for further analysis.
Blood samples were collected at various time points and Factor 11 proenzyme was measured using a F11 assay based on clotting time. Clotting times were determined in duplicate with a ST4 semi-automated coagulation instrument (Diagnostica Stago, NJ). Thirty μl of citrated sample plasma diluted 1/20 in HEPES-NaCl buffer with BSA was incubated with 30 μl aPTT reagent (Automated aPTT, Organon Technika, NC) and 30 μl of citrated plasma deficient of Factor 11 (George King Bio-Medical Inc.) at 37° C. for 5 min, followed by the addition of 30 μl of 25 mM CaCl2) to initiate clotting. Results were interpolated on a standard curve of serially diluted citrated control plasma.
Results are presented in Table 118 as percent inhibition of Factor 11 activity, relative to PBS control. The ISIS oligonucleotide, ISIS 416850, given with the chronic dose regimen is distinguished from the other oligonucleotides with an asterisk (*).

[1] = Kidney function, urine protein to creatinine ratio in cynomolgus monkeys (Example 45); format: in vivo
Protocol: as §1
To evaluate the impact of ISIS oligonucleotides on kidney function, urine samples were collected.

[2] = system: IL-1β, IL-6, IFN-γ, TNF-α, IL-8, MIP-1α, MCP-1, MIP-1β, RANTES; experiment: Cytokine and chemokine assays in cynomolgus monkeys (Example 45); format: in vivo; settings: escalating dose regimen
Protocol: as §1
Blood samples obtained from the monkey groups treated with PBS, ISIS 416850 and ISIS 416858 administered in the escalating dose regimen were sent to Pierce Biotechnology (Woburn, Mass.) for measurement of chemokine and cytokine levels. Levels of IL-1β, IL-6, IFN-γ, and TNF-α were measured using the respective primate antibodies and levels of IL-8, MIP-1α, MCP-1, MIP-1β and RANTES were measured using the respective cross-reacting human antibodies. Measurements were taken 14 days before the start of treatment and on day 85, when the monkeys were euthanized.

[3] = day −14 (before start of treatment)

ISIS 416858: MOE gapmer, nucleobases 1275 to 1318 of SEQ ID NO: 1 (Table 8) (antisense ACGGCATTGGTGCACAGTTT; MOE gapmer, wing and gap sizes not given here)
percent inhibition of Factor 11 activity, relative to PBS control (Factor 11 activity; day 8): 6%
percent inhibition of Factor 11 activity, relative to PBS control (Factor 11 activity; day 15): 16%
percent inhibition of Factor 11 activity, relative to PBS control (Factor 11 activity; day 22): 23%
percent inhibition of Factor 11 activity, relative to PBS control (Factor 11 activity; day 29): 28%
percent inhibition of Factor 11 activity, relative to PBS control (Factor 11 activity; day 36): 35%
percent inhibition of Factor 11 activity, relative to PBS control (Factor 11 activity; day 43): 39%
percent inhibition of Factor 11 activity, relative to PBS control (Factor 11 activity; day 50): 49%
percent inhibition of Factor 11 activity, relative to PBS control (Factor 11 activity; day 57): 60%
percent inhibition of Factor 11 activity, relative to PBS control (Factor 11 activity; day 64): 68%
percent inhibition of Factor 11 activity, relative to PBS control (Factor 11 activity; day 71): 71%
percent inhibition of Factor 11 activity, relative to PBS control (Factor 11 activity; day 78): 73%
percent inhibition of Factor 11 activity, relative to PBS control (Factor 11 activity; day 85): 78%
percent inhibition of Factor 11 activity, relative to PBS control (Factor 11 activity; day −5): 0%
percent inhibition of Factor 11 activity, relative to PBS control (Factor 11 activity; day −14): 0%
urine protein to creatinine ratio ([1]; Day 80): 0.10
urine protein to creatinine ratio ([1]; Day 84): 0.07
IFN-γ level ([2]; day 85): 18 pg/mL
IL-1β level ([2]; day 85): 5 pg/mL
IL-6 level ([2]; day 85): 25 pg/mL
IL-8 level ([2]; day 85): 303 pg/mL
MCP-1 level ([2]; day 85): 1752 pg/mL
MIP-1α level ([2]; day 85): 41 pg/mL
MIP-1β level ([2]; day 85): 221 pg/mL
RANTES level ([2]; day 85): 125511 pg/mL
TNF-α level ([2]; day 85): 45 pg/mL
IFN-γ level [2, 3]: 60 pg/mL
IL-1β level [2, 3]: 5 pg/mL
IL-6 level [2, 3]: 9 pg/mL
IL-8 level [2, 3]: 1552 pg/mL
MCP-1 level [2, 3]: 1252 pg/mL
MIP-1α level [2, 3]: 36 pg/mL
MIP-1β level [2, 3]: 122 pg/mL
RANTES level [2, 3]: 112253 pg/mL
TNF-α level [2, 3]: 9 pg/mL

ISIS 416864: MOE gapmer, nucleobases 1275 to 1318 of SEQ ID NO: 1 (Table 8) (antisense GGCAGCGGACGGCATTGGTG; MOE gapmer, wing and gap sizes not given here)
percent inhibition of Factor 11 activity, relative to PBS control (Factor 11 activity; day 8): 7%
percent inhibition of Factor 11 activity, relative to PBS control (Factor 11 activity; day 15): 9%
percent inhibition of Factor 11 activity, relative to PBS control (Factor 11 activity; day 22): 7%
percent inhibition of Factor 11 activity, relative to PBS control (Factor 11 activity; day 29): 10%
percent inhibition of Factor 11 activity, relative to PBS control (Factor 11 activity; day 36): 9%
percent inhibition of Factor 11 activity, relative to PBS control (Factor 11 activity; day 43): 9%
percent inhibition of Factor 11 activity, relative to PBS control (Factor 11 activity; day 50): 10%
percent inhibition of Factor 11 activity, relative to PBS control (Factor 11 activity; day 57): 7%
percent inhibition of Factor 11 activity, relative to PBS control (Factor 11 activity; day 64): 5%
percent inhibition of Factor 11 activity, relative to PBS control (Factor 11 activity; day 71): 10%
percent inhibition of Factor 11 activity, relative to PBS control (Factor 11 activity; day 78): 9%
percent inhibition of Factor 11 activity, relative to PBS control (Factor 11 activity; day 85): 8%
percent inhibition of Factor 11 activity, relative to PBS control (Factor 11 activity; day −5): 5%
percent inhibition of Factor 11 activity, relative to PBS control (Factor 11 activity; day −14): 0%
urine protein to creatinine ratio ([1]; Day 80): 0.36
urine protein to creatinine ratio ([1]; Day 84): 0.34

ISIS 417002: MOE gapmer, nucleobases 1275 to 1318 of SEQ ID NO: 1 (Table 8) (antisense GGTGCACAGTTTCTGGCAGG; MOE gapmer, wing and gap sizes not given here)
percent inhibition of Factor 11 activity, relative to PBS control (Factor 11 activity; day 8): 0%
percent inhibition of Factor 11 activity, relative to PBS control (Factor 11 activity; day 15): 4%
percent inhibition of Factor 11 activity, relative to PBS control (Factor 11 activity; day 22): 2%
percent inhibition of Factor 11 activity, relative to PBS control (Factor 11 activity; day 29): 8%
percent inhibition of Factor 11 activity, relative to PBS control (Factor 11 activity; day 36): 8%
percent inhibition of Factor 11 activity, relative to PBS control (Factor 11 activity; day 43): 9%
percent inhibition of Factor 11 activity, relative to PBS control (Factor 11 activity; day 50): 13%
percent inhibition of Factor 11 activity, relative to PBS control (Factor 11 activity; day 57): 24%
percent inhibition of Factor 11 activity, relative to PBS control (Factor 11 activity; day 64): 26%
percent inhibition of Factor 11 activity, relative to PBS control (Factor 11 activity; day 71): 30%
percent inhibition of Factor 11 activity, relative to PBS control (Factor 11 activity; day 78): 22%
percent inhibition of Factor 11 activity, relative to PBS control (Factor 11 activity; day 85): 23%
percent inhibition of Factor 11 activity, relative to PBS control (Factor 11 activity; day −5): 0%
percent inhibition of Factor 11 activity, relative to PBS control (Factor 11 activity; day −14): 0%
urine protein to creatinine ratio ([1]; Day 80): 0.18
urine protein to creatinine ratio ([1]; Day 84): 0.24
